Laboratory results: patent EP0549040A1, “Methods of making 4" derivatives of 9-deoxo-8a-aza-8a-alkyl-8a-homoerythromycin A” (MERCK & CO. INC., priority 1991, dated 1993)
≈ marks a conversion by molar mass, not a printed value. Where two headings read alike, the source gives them in different places.

Legend:
Test in all cases: liquid turbidimetric microtiter MIC determination in broth media
Type in all cases: cell-based
[1] = system: Enterobacter cloacae CL 4298
Excerpt: (§1) The antibacterial activities of the compounds of Examples 8 and 10 against a panel of aerobic Gram positive and negative bacteria is shown in the following Table. The assay employs a liquid turbidimetric microtiter method for the determination of the minimum inhibitory concentration (MIC) in broth media. […] The MIC is generally not an absolute value but rather a concentration range that falls within a two-fold dilution limit. Generally twelve two-fold dilutions of the test compound are employed with the initial concentration set at 128 mcg/ml.

[2] = system: Enterococcus faecalis MB 5407
Excerpt: as §1

Escherichia coli MB 2884 = system: Escherichia coli MB 2884
Excerpt: as §1

[3] = system: Haemophilus influenzae AT 43163
Excerpt: as §1

[4] = system: Haemophilus influenzae MB 5363
Excerpt: as §1

[5] = system: Klebsiella pneumoniae MB 4005
Excerpt: as §1

[6] = system: Staphylococcus aureus MB 2865
Excerpt: as §1

[7] = system: Staphylococcus epidermidis MB 5414
Excerpt: as §1

[8] = system: Streptococcus pneumoniae CL 2883
Excerpt: as §1

[9] = system: Streptococcus pyogenes MB 2874
Excerpt: as §1

[10] = system: Enterococcus faecium MB 5416; details: MB5416, Table I
Excerpt: as §1

Escherichia coli MB 4926 = details: MB4926, Table I
Excerpt: as §1

[11] = system: Pseudomonas stutzeri MB 1231; details: Stutzerimonas stutzeri, MB1231, Table I
Excerpt: as §1

[12] = system: Staphylococcus haemolyticus MB 5412; details: MB5412, Table I
Excerpt: as §1

[13] = system: Steptococcus viridans CL 2943; details: Table I
Excerpt: as §1

[14] = system: Streptococcus agalactiae CL 1343; details: CL1343, Table I
Excerpt: as §1

[15] = system: Streptococcus pyogenes MB 54061; details: MB54061, Table I
Excerpt: as §1

[16] = MB2884, Table II, MIC, read-out: In vitro Activity
[17] = MB5407, Table I, Enterococcus faecalis MB 5407, read-out: MIC Values
[18] = MB2884, Table I, read-out: MIC Values
[19] = MB4005, Table I, Klebsiella pneumoniae MB 4005, read-out: MIC Values
[20] = MB2865, Table I, Staphylococcus aureus MB 2865, read-out: MIC Values
[21] = MB5414, Table I, Staphylococcus epidermidis MB 5414, read-out: MIC Values
[22] = CL2883, Table I, Streptococcus pneumoniae CL 2883, read-out: MIC Values
[23] = MB2874, Table I, Streptococcus pyogenes MB 2874, read-out: MIC Values
[24] = CL4298, Table II, MIC, Enterobacter cloacae CL 4298, read-out: In vitro Activity
[25] = MB5407, Table II, MIC, Enterococcus faecalis MB 5407, read-out: In vitro Activity
[26] = AT43163, Table II, MIC, Haemophilus influenzae AT 43163, read-out: In vitro Activity
[27] = MB5363, Table II, MIC, Haemophilus influenzae MB 5363, read-out: In vitro Activity
[28] = MB4005, Table II, MIC, Klebsiella pneumoniae MB 4005, read-out: In vitro Activity
[29] = MB2865, Table II, MIC, Staphylococcus aureus MB 2865, read-out: In vitro Activity
[30] = MB5414, Table II, MIC, Staphylococcus epidermidis MB 5414, read-out: In vitro Activity
[31] = CL2883, Table II, MIC, Streptococcus pneumoniae CL 2883, read-out: In vitro Activity
[32] = MB2874, Table II, MIC, Streptococcus pyogenes MB 2874, read-out: In vitro Activity

Q: With “4''-epi-9-deoxo-8a-aza-8a-methyl-8a-homoerythromycin A [Example 15]” as the compound, how does the “In vitro Activity” value ([1]; Table II, MIC, Enterobacter cloacae CL 4298) read?
A: 0.5 µg/mL

Q: What about the “In vitro Activity” value ([2]; Table II, MIC, Enterococcus faecalis MB 5407) of the same compound?
A: 1 µg/mL

Q: What about the “In vitro Activity” value (Escherichia coli MB 2884; Table II, MIC) of the same compound?
A: 1 µg/mL

Q: And the “In vitro Activity” value ([3]; Table II, MIC, Haemophilus influenzae AT 43163)?
A: 0.5 µg/mL

Q: And the “In vitro Activity” value ([4]; Table II, MIC, Haemophilus influenzae MB 5363)?
A: 0.5 µg/mL

Q: And the “In vitro Activity” value ([5]; Table II, MIC, Klebsiella pneumoniae MB 4005)?
A: 1 µg/mL

Q: What about the “In vitro Activity” value ([6]; Table II, MIC, Staphylococcus aureus MB 2865) of the same compound?
A: 0.5 µg/mL

Q: And the “In vitro Activity” value ([7]; Table II, MIC, Staphylococcus epidermidis MB 5414)?
A: 0.25 µg/mL

Q: What about the “In vitro Activity” value ([8]; Table II, MIC, Streptococcus pneumoniae CL 2883) of the same compound?
A: ≦0.06 mcg/ml

Q: And the “In vitro Activity” value ([9]; Table II, MIC, Streptococcus pyogenes MB 2874)?
A: ≦0.06 mcg/ml

Q: `CC[C@H]1OC(=O)[C@H](C)[C@@H](O[C@H]2C[C@@](C)(OC)[C@@H](O)[C@H](C)O2)[C@H](C)[C@@H](O[C@@H]2O[C@H](C)C[C@H](N(C)C)[C@H]2O)[C@](C)(O)C[C@@H](C)C(=O)[C@H](C)[C@@H](O)[C@]1(C)O` [Erythromycin A, erythromycin A] was tested. Which MIC ([1]; Enterobacter cloacae, CL4298, read-out: In vitro Activity) did it give?
A: 16 µg/mL (≈ 21.8 µM)

Q: What about the MIC ([2]; Enterococcus faecalis, MB5407, read-out: In vitro Activity) of the same compound?
A: 1 µg/mL (≈ 1.36 µM)

Q: What about the MIC (Escherichia coli MB 2884; [16]) of the same compound?
A: 16 µg/mL (≈ 21.8 µM)

Q: And the MIC ([3]; Haemophilus influenzae, AT43163, read-out: In vitro Activity)?
A: 2 µg/mL (≈ 2.73 µM)

Q: And the MIC ([4]; Haemophilus influenzae, MB5363, read-out: In vitro Activity)?
A: 2 µg/mL (≈ 2.73 µM)

Q: What about the MIC ([5]; Klebsiella pneumoniae, MB4005, read-out: In vitro Activity) of the same compound?
A: 32 µg/mL (≈ 43.6 µM)

Q: What about the MIC ([6]; Staphylococcus aureus, MB2865, read-out: In vitro Activity) of the same compound?
A: 0.12 µg/mL (≈ 0.164 µM)

Q: And the MIC ([7]; Staphylococcus epidermidis, MB5414, read-out: In vitro Activity)?
A: 0.12 µg/mL (≈ 0.164 µM)

Q: What about the MIC ([8]; Streptococcus pneumoniae, CL2883, read-out: In vitro Activity) of the same compound?
A: ≤ 0.06 µg/mL

Q: And the MIC ([9]; Streptococcus pyogenes, MB2874, read-out: In vitro Activity)?
A: ≤ 0.06 µg/mL

Q: What does the source list for `CC[C@H]1OC(=O)[C@H](C)[C@@H](O[C@H]2C[C@@](C)(OC)[C@@H](O)[C@H](C)O2)[C@H](C)[C@@H](O[C@@H]2O[C@H](C)C[C@H](N(C)C)[C@H]2O)[C@](C)(O)C[C@@H](C)NC[C@H](C)[C@@H](O)[C@]1(C)O` [Example 9, 9-Deoxo-8a-aza-8a-homoerythromycin A]?
A: MIC [2, 17]: 8 µg/mL (≈ 10.9 µM); MIC [10]: 0.25 µg/mL (≈ 0.34 µM); MIC (Escherichia coli MB 2884; [18]): 4 µg/mL (≈ 5.44 µM); MIC (Escherichia coli MB 4926): 2 µg/mL (≈ 2.72 µM); MIC [5, 19]: 8 µg/mL (≈ 10.9 µM); MIC [11]: ≤ 0.06 µg/mL; MIC [6, 20]: 0.5 µg/mL (≈ 0.68 µM); MIC [7, 21]: 1 µg/mL (≈ 1.36 µM); MIC [12]: 0.5 µg/mL (≈ 0.68 µM); MIC [13]: 8 µg/mL (≈ 10.9 µM); MIC [14]: ≤ 0.06 µg/mL; MIC [8, 22]: ≤ 0.06 µg/mL; MIC [9, 23]: ≤ 0.06 µg/mL; MIC [15]: 128 µg/mL (≈ 174 µM)

Q: `CC[C@H]1OC(=O)[C@H](C)[C@@H](O[C@H]2C[C@@](C)(OC)[C@@H](O)[C@H](C)O2)[C@H](C)[C@@H](O[C@@H]2O[C@H](C)C[C@H](N(C)C)[C@H]2O)[C@](C)(O)C[C@@H](C)N(C)C[C@H](C)[C@@H](O)[C@]1(C)O` [Example 10, 9-Deoxo-8a-aza-8a-methyl-8a-homoerythromycin A] was tested. Which MIC [2, 17] did it give?
A: 4 µg/mL (≈ 5.34 µM)

Q: And the MIC [10]?
A: 0.25 µg/mL (≈ 0.334 µM)

Q: What about the MIC (Escherichia coli MB 2884; [18]) of the same compound?
A: 1 µg/mL (≈ 1.34 µM)

Q: And the MIC (Escherichia coli MB 4926)?
A: 0.06 µg/mL (≈ 0.0801 µM)

Q: And the MIC [5, 19]?
A: 2 µg/mL (≈ 2.67 µM)

Q: And the MIC [11]?
A: ≤ 0.06 µg/mL

Q: And the MIC [6, 20]?
A: 0.5 µg/mL (≈ 0.668 µM)

Q: What about the MIC [7, 21] of the same compound?
A: 1 µg/mL (≈ 1.34 µM)

Q: What about the MIC [12] of the same compound?
A: 0.5 µg/mL (≈ 0.668 µM)

Q: And the MIC [13]?
A: 1 µg/mL (≈ 1.34 µM)

Q: And the MIC [14]?
A: ≤ 0.06 µg/mL

Q: And the MIC [8, 22]?
A: ≤ 0.06 µg/mL

Q: And the MIC [9, 23]?
A: ≤ 0.06 µg/mL

Q: What about the MIC [15] of the same compound?
A: 128 µg/mL (≈ 171 µM)

Q: What does the source list for `CC[C@H]1OC(=O)[C@H](C)[C@@H](O[C@H]2C[C@@](C)(OC)C(N)[C@H](C)O2)[C@H](C)[C@@H](O[C@@H]2O[C@H](C)C[C@H](N(C)C)[C@H]2O)[C@](C)(O)C[C@@H](C)N(C)C[C@H](C)[C@@H](O)[C@]1(C)O` (stereo partly drawn) [Example 17, 4''-Deoxy-4''-amino-9-deoxo-8a-aza-8a-methyl-8a-homoerythromycin A]?
A: MIC [1, 24]: ≤ 0.06 µg/mL; MIC [2, 25]: 4 µg/mL (≈ 5.35 µM); MIC (Escherichia coli MB 2884; [16]): 0.12 µg/mL (≈ 0.16 µM); MIC [3, 26]: 0.25 µg/mL (≈ 0.334 µM); MIC [4, 27]: 0.5 µg/mL (≈ 0.668 µM); MIC [5, 28]: 0.12 µg/mL (≈ 0.16 µM); MIC [6, 29]: 1 µg/mL (≈ 1.34 µM); MIC [7, 30]: 0.5 µg/mL (≈ 0.668 µM); MIC [8, 31]: ≤ 0.06 µg/mL; MIC [9, 32]: ≤ 0.06 µg/mL

Q: Which MIC [1, 24] does the source give for `CC[C@H]1OC(=O)[C@H](C)[C@@H](O[C@H]2C[C@@](C)(OC)[C@@H](N)[C@H](C)O2)[C@H](C)[C@@H](O[C@@H]2O[C@H](C)C[C@H](N(C)C)[C@H]2O)[C@](C)(O)C[C@@H](C)N(C)C[C@H](C)[C@@H](O)[C@]1(C)O` [Example 19, 4''-Deoxy-4''-(S) - amino-9-deoxo-8a-aza-8a-methyl-8a-homoerythromycin A] here?
A: ≤ 0.06 µg/mL

Q: What about the MIC [2, 25] of the same compound?
A: 2 µg/mL (≈ 2.67 µM)

Q: What about the MIC (Escherichia coli MB 2884; [16]) of the same compound?
A: 0.12 µg/mL (≈ 0.16 µM)

Q: What about the MIC [3, 26] of the same compound?
A: 0.25 µg/mL (≈ 0.334 µM)

Q: What about the MIC [4, 27] of the same compound?
A: 0.25 µg/mL (≈ 0.334 µM)

Q: What about the MIC [5, 28] of the same compound?
A: 0.12 µg/mL (≈ 0.16 µM)

Q: And the MIC [6, 29]?
A: 1 µg/mL (≈ 1.34 µM)

Q: What about the MIC [7, 30] of the same compound?
A: 0.51 µg/mL (≈ 0.682 µM)

Q: What about the MIC [8, 31] of the same compound?
A: ≤ 0.06 µg/mL

Q: And the MIC [9, 32]?
A: ≤ 0.06 µg/mL

Q: What does the source list for `CC[C@H]1OC(=O)[C@H](C)[C@@H](O[C@H]2C[C@@](C)(OC)[C@H](N)[C@H](C)O2)[C@H](C)[C@@H](O[C@@H]2O[C@H](C)C[C@H](N(C)C)[C@H]2O)[C@](C)(O)C[C@@H](C)N(C)C[C@H](C)[C@@H](O)[C@]1(C)O` [Example 20, 4''-Deoxy-4''-(R) - amino-9-deoxo-8a-aza-8a-methyl-8a-homoerythromycin A]?
A: MIC [1, 24]: 0.12 µg/mL (≈ 0.16 µM); MIC [2, 25]: 2 µg/mL (≈ 2.67 µM); MIC (Escherichia coli MB 2884; [16]): 0.25 µg/mL (≈ 0.334 µM); MIC [3, 26]: 0.25 µg/mL (≈ 0.334 µM); MIC [4, 27]: 0.5 µg/mL (≈ 0.668 µM); MIC [5, 28]: 0.25 µg/mL (≈ 0.334 µM); MIC [6, 29]: 1 µg/mL (≈ 1.34 µM); MIC [7, 30]: 0.5 µg/mL (≈ 0.668 µM); MIC [8, 31]: ≤ 0.06 µg/mL; MIC [9, 32]: ≤ 0.06 µg/mL
